US12428416B2 (California Institute of Technology, priority 2018, dated 2025)

Assays:
[1] = system: drug-resistant cell lines of Table 4; assay: Cell line growth retardation assay, average over resistant cohort; format: cell-based, Human; details: Homo sapiens, 144 h; geometric mean of IC50s over resistant cohort (Table 4); 6 days growth; read-out: AvgRes IC50
Protocol: (§1) Cell Line Growth Retardation Assay
(§2) Cells were seeded at densities of 1,000-5,000 cells per well in 48-well tissue culture plates. After a 24 h rest period, cells were treated with compound at 10 μM, 2 μM, 0.4 μM, 0.08 μM, 0.016 μM, and 0.0032 μM. A group of cells were treated with the vehicle in which the compound was prepared and served as a control. The cells were grown in the presence of compounds for 6 days and were counted on day 0 and day 6. All cell counting was performed using a Synentec Cellavista plate imager. […] Growth inhibition was calculated as a ratio of cell population doublings in the presence of compound versus the absence of compound. […] IC50 values for each compound were calculated by fitting curves to data points from each dose-response assay using the Proc NLIN function in SAS for Windows version 9.2 (SAS Institute, Inc.).
(§3) Designation of Sensitivity and Resistant Cohorts and Calculation of Average IC50 Values
(§4) Human cancer cell lines were grouped as “sensitive” or “resistant” to ERK1 inhibition based on whether their growth was retarded by KO-947 (i.e., 1,5,6,8-tetrahydro-6-(phenylmethyl)-3-(4-pyridinyl)-7H-pyrazolo[4,3-g]quinazolin-7-one) and SCH772984 (i.e., (3R)-1-[2-oxo-2-[4-[4-(2-pyrimidinyl)phenyl]-1-piperazinyl]ethyl]-N-[3-(4-pyridinyl)-1H-indazol-5-yl]-3-pyrrolidinecarboxamide) (data not shown; see Table 4). These sensitive and resistant cohorts were interrogated for response to each compound, and IC50s were calculated for each cell line using the same technique described above. Average IC50s for the sensitive and resistant cohorts were calculated as geometric means of the group.

[2] = target: ERK2 (Homo sapiens, UniProt P28482); assay: ERK1 and 2 Enzymatic Inhibition Assay (ERK2); format: biochemical; details: 10 assay concentrations 2×10^−6 M to 6×10^−11 M, 1% DMSO
Protocol: (§5) ERK1 and 2 Enzymatic Inhibition Assay
(§6) For the Ki determination assay, 200 μM stock solutions of compounds were subjected to a serial, semi-logarithmic dilution using 100% DMSO as a solvent. 10 distinct concentrations were prepared, with a dilution endpoint of 6×10^−9 M in 100% DMSO. 100% DMSO was used as a control. 10 μL from each of the serial dilutions were aliquoted into separate wells of a 96-well plate and 90 μL of water were added to each of those wells. The plate was shaken thoroughly, and 5 μL from each of the plate's wells were transferred into wells of the assay plate. The final volume of wells in the assay plate was 50 μL. All compounds were tested at 10 assay concentrations in the range from 2×10^−6 M to 6×10^−11 M. The final DMSO concentration in the wells of the assay plate was 1% in all cases.

[3] = Compound metabolic stability in hepatocytes; format: in vitro ADME; details: hepatocytes from mice and rats (species not given); class symbols without key
Protocol: The metabolic stability of compounds was determined in hepatocytes from mice and rats. Compounds were diluted to 5 μM in Williams' Medium E from 10 mM stock solutions. 10 μL of each compound was aliquoted into a well of a 96-well plate and reactions were started by aliquoting 40 μL of a 625,000 cells/mL suspension into each well. The plate was incubated at 37° C. with 5% CO2. At each corresponding time point, the reaction was stopped by quenching with ACN containing internal standards (IS) at a 1:3. Plates were shaken at 500 rpm for 10 min, and then centrifuged at 3,220×g for 20 minutes. Supernatants were transferred to another 96-well plate containing a dilution solution. Supernatants were analyzed by LC/MS/MS.
Compound half-life was estimated using the following equation: % Remaining Compound=Peak Area Ratios of Tested Compound vs. Internal Standard at End Point/Peak Area Ratios of Tested Compound vs. Internal Standard at Start Point Mouse Xenograft Studies

[4] = target: ERK1 (Homo sapiens, UniProt P27361); assay: ERK1 and 2 Enzymatic Inhibition Assay (ERK1); format: biochemical; details: 10 assay concentrations 2×10^−6 M to 6×10^−11 M, 1% DMSO
Protocol: as §5, §6

[5] = system: drug-sensitive cell lines of Table 4; assay: Cell line growth retardation assay, average over sensitive cohort; format: cell-based, Human; details: Homo sapiens, 144 h; geometric mean of IC50s over sensitive cohort (Table 4); 6 days growth; read-out: AvgSens IC50
Protocol: as §1, §2, §3, §4

ERK1, sequence (P27361 whole entry): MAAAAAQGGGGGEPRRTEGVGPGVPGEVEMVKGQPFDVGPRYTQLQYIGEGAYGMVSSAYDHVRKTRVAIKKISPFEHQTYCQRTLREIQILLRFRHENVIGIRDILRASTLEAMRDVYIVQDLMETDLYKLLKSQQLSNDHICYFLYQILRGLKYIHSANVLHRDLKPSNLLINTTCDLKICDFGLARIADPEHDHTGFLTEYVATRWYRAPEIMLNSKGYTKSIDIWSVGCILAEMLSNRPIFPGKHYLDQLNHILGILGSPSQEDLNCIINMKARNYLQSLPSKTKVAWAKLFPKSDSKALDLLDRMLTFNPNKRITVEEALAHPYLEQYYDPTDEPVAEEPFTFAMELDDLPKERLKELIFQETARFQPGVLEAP
ERK2, sequence (P28482 whole entry): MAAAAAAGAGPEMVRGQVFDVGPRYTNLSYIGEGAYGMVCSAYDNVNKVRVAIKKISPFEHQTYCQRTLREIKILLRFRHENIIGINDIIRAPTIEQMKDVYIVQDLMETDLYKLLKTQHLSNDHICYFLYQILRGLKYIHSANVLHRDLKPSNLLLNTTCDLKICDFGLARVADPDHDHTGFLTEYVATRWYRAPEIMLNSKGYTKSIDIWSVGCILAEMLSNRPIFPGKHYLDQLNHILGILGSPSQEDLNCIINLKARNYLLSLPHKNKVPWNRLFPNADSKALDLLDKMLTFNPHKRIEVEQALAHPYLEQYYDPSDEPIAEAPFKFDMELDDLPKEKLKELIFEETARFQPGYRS

Row | Compound | Kd [2] [nM] | half-life at 1 µM [3] [min] | Kd [4] [nM] | IC50 [1] [nM] | IC50 [5] [nM]
1 | O=C(c1ncc(-c2c[nH]c3ncc(N4CCOCC4)cc23)cn1)N1CCCC1c1ccccn1 (stereo not shown) [Compound 26, (5-(5-morpholino-1H-pyrrolo[2,3-b]pyridin-3-yl)pyrimidin-2-yl)(2-(pyridin-2-yl)pyrrolidin-1-yl)methanone] | > 100 | < 25 | 11 to 100 | > 500 | > 500
2 | c1ccc([C@@H]2COC(c3ncc(-c4c[nH]c5ncc(N6CCOCC6)cc45)cn3)=N2)cc1 [Compound 28, (R)-4-(3-(2-(4-phenyl-4,5-dihydrooxazol-2-yl)pyrimidin-5-yl)-1H-pyrrolo[2,3-b]pyridin-5-yl)morpholine] | > 100 | > 25 | > 100 | > 500 | > 500
3 | CC(NC(=O)c1ncc(-c2c[nH]c3ncc(N4CCOCC4)cc23)cn1)c1ccccc1 (stereo in doubt) [Compound 22, (S)-5-(5-morpholino-1H-pyrrolo[2,3-b]pyridin-3-yl)-N-(1-phenylethyl)pyrimidine-2-carboxamide] | > 100 | > 25 | > 100 | > 500 | > 500
4 | c1ccc([C@H]2CN=C(c3ncc(-c4c[nH]c5ncc(N6CCOCC6)cc45)cn3)O2)cc1 [Compound 55, (S)-4-(3-(2-(5-phenyl-4,5-dihydrooxazol-2-yl)pyrimidin-5-yl)-1H-pyrrolo[2,3-b]pyridin-5-yl)morpholine] | 11 to 100 | – | 11 to 100 | > 500 | > 500
5 | C[C@H]1N=C(c2ncc(-c3c[nH]c4ncc(N5CCOCC5)cc34)cn2)O[C@H]1c1ccccc1 [Compound 56, 4-(3-(2-((4R,5S)-4-methyl-5-phenyl-4,5-dihydrooxazol-2-yl)pyrimidin-5-yl)-1H-pyrrolo[2,3-b]pyridin-5-yl)morpholine] | 11 to 100 | – | 11 to 100 | > 500 | > 500
6 | c1ccc([C@H]2COC(c3ncc(-c4c[nH]c5ncc(N6CCOCC6)cc45)cn3)=N2)cc1 [Compound 27, (S)-4-(3-(2-(4-phenyl-4,5-dihydrooxazol-2-yl)pyrimidin-5-yl)-1H-pyrrolo[2,3-b]pyridin-5-yl)morpholine] | ≤ 10 | > 25 | ≤ 10 | > 500 | > 500
7 | O=C(NCCc1ccccc1)c1ccc(-c2c[nH]c3ncc(N4CCOCC4)cc23)nn1 [Compound 13, 6-(5-morpholino-1H-pyrrolo[2,3-b]pyridin-3-yl)-N-phenethylpyridazine-3-carboxamide] | > 100 | – | 11 to 100 | > 500 | > 500
8 | CC(NC(=O)c1ncc(-c2c[nH]c3ncc(Br)cc23)cn1)c1ccccc1 (stereo in doubt) [Compound 67, (R)-5-(5-bromo-1H-pyrrolo[2,3-b]pyridin-3-yl)-N-(1-phenylethyl)pyrimidine-2-carboxamide] | 11 to 100 | – | 11 to 100 | > 500 | > 500
9 | CC(NC(=O)c1ncc(-c2c[nH]c3ncc(N4C[C@@H](C)O[C@@H](C)C4)cc23)cn1)c1ccccc1 (stereo in doubt) [Compound 36, 5-(5-((2R,6S)-2,6-dimethylmorpholino)-1H-pyrrolo[2,3-b]pyridin-3-yl)-N—((R)-1-phenylethyl)pyrimidine-2-carboxamide] | 11 to 100 | – | ≤ 10 | > 500 | > 500

Second part, led by results:

Row | Kd [2] [nM] | half-life at 1 µM [3] [min] | Kd [4] [nM] | Compound | IC50 [1] [nM] | IC50 [5] [nM]
10 | ≤ 10 | > 25 | ≤ 10 | C[C@@H](NC(=O)c1ncc(-c2c[nH]c3ncc(N4CCOCC4)cc23)cn1)c1ccc(Cl)cc1 [Compound 25, (R)—N-(1-(4-chlorophenyl)ethyl)-5-(5-morpholino-1H-pyrrolo[2,3-b]pyridin-3-yl)pyrimidine-2-carboxamide] | > 500 | > 500
11 | ≤ 10 | > 25 | ≤ 10 | C[C@@H](NC(=O)c1ncc(-c2c[nH]c3ncc(N4CCOCC4)cc23)cn1)c1cccc(Cl)c1 [Compound 20, (R)—N-(1-(3-chlorophenyl)ethyl)-5-(5-morpholino-1H-pyrrolo[2,3-b]pyridin-3-yl)pyrimidine-2-carboxamide] | > 500 | ≤ 250
12 | ≤ 10 | < 25 | ≤ 10 | C[C@H](Cc1ccccc1)NC(=O)c1ncc(-c2c[nH]c3ncc(N4CCOCC4)cc23)cn1 [Compound 31, (R)-5-(5-morpholino-1H-pyrrolo[2,3-b]pyridin-3-yl)-N-(1-phenylpropan-2-yl)pyrimidine-2-carboxamide] | > 500 | > 500
13 | ≤ 10 | < 25 | ≤ 10 | O=C(NCCc1ccccc1)c1ncc(-c2c[nH]c3ncc(N4CCOCC4)cc23)cn1 [Compound 11, 5-(5-morpholino-1H-pyrrolo[2,3-b]pyridin-3-yl)-N-phenethylpyrimidine-2-carboxamide] | > 500 | 251 to 500
14 | ≤ 10 | – | ≤ 10 | C[C@H](CNC(=O)c1ncc(-c2c[nH]c3ncc(N4CCOCC4)cc23)cn1)c1ccccc1 [Compound 32] | > 500 | 251 to 500
15 | 11 to 100 | – | 11 to 100 | C[C@H](c1ccccc1)N(C)C(=O)c1ncc(-c2c[nH]c3ncc(N4CCOCC4)cc23)cn1 [Compound 17] | > 500 | > 500
16 | > 100 | – | 11 to 100 | CC(NC(=O)c1ncc(-c2c[nH]c3ncc(N4CCC45COC5)cc23)cn1)c1ccccc1 (stereo in doubt) [Compound 43, (R)-5-(5-(6-oxa-1-azaspiro[3.3]heptan-6-yl)-1H-pyrrolo[2,3-b]pyridin-3-yl)-N-(1-phenylethyl)pyrimidine-2-carboxamide] | > 500 | > 500
17 | > 100 | – | > 100 | CN(C)CC(NC(=O)c1ncc(-c2c[nH]c3ncc(N4CCOCC4)cc23)cn1)c1ccccc1 (stereo in doubt) [Compound 57, (S)—N-(2-(dimethylamino)-1-phenylethyl)-5-(5-morpholino-1H-pyrrolo[2,3-b]pyridin-3-yl)pyrimidine-2-carboxamide] | > 500 | > 500
18 | ≤ 10 | – | ≤ 10 | C[C@H](NC(=O)c1ncc(-c2c[nH]c3ncc(N4CCOCC4)cc23)cn1)c1ccccc1Cl [Compound 45, (S)—N-(1-(2-chlorophenyl)ethyl)-5-(5-morpholino-1H-pyrrolo[2,3-b]pyridin-3-yl)pyrimidine-2-carboxamide] | > 500 | ≤ 250
19 | ≤ 10 | – | ≤ 10 | O=C(NC(c1ccccc1)C(F)(F)F)c1ncc(-c2c[nH]c3ncc(N4CCOCC4)cc23)cn1 (stereo in doubt) [Compound 47, (S)-5-(5-morpholino-1H-pyrrolo[2,3-b]pyridin-3-yl)-N-(2,2,2-trifluoro-1-phenylethyl)pyrimidine-2-carboxamide] | > 500 | 251 to 500
20 | ≤ 10 | – | ≤ 10 | Cc1ccccc1CCNC(=O)c1ncc(-c2c[nH]c3ncc(N4CCOCC4)cc23)cn1 [Compound 65, N-(2-methylphenethyl)-5-(5-morpholino-1H-pyrrolo[2,3-b]pyridin-3-yl)pyrimidine-2-carboxamide] | > 500 | ≤ 250
